Consider four molecules from patent US20060063755A1, “Loxapine analogs and methods of use thereof” (priority 2004, published 2006).

Data set [1] addresses hERG channel (Homo sapiens, UniProt Q12809). Description: hERG channel current block, whole cell recording in HEK293 cells. In kind it is cell-based. To be noted: HEK293 cells expressing hERG. As for the experimental part:
Other in vitro selection criteria for loxapine analogs of the invention includes hERG binding.
(Brown and Rampe (2000)).
In one embodiment of the HERG assay, the positive control (i.e., reference compound) is terfenadine (Sigma, St. Louis Mo.), which has been shown, at a concentration of 60 nM, to block HERG current by approximately 75%. Test compounds are delivered in HEPES-buffered physiological saline (HB-PS)+0.1% dimethyl sulfoxide (DMSO).
Clin. Exp. Allergy 29 Suppl 3, 174-181.
If the final DMSO concentration must be greater than 0.3%, to reach a specified test article concentration, a separate vehicle control test with an n>2 was performed at the highest final DMSO concentration.
Each cell acted as its own control. […] One concentration of the positive control article (60 nM terfenadine) was applied to two cells (n≧2).
On the technique in general: Block of hERG is tested as a sign of cardiac risk.

The target in data set [2] is T1, M1 muscarinic receptor (Homo sapiens, UniProt P11229).
T1 construct: purchased PerkinElmer, Inc., Wellesley, Mass; host or cells: CHO cells
T1 sequence (P11229 1-460): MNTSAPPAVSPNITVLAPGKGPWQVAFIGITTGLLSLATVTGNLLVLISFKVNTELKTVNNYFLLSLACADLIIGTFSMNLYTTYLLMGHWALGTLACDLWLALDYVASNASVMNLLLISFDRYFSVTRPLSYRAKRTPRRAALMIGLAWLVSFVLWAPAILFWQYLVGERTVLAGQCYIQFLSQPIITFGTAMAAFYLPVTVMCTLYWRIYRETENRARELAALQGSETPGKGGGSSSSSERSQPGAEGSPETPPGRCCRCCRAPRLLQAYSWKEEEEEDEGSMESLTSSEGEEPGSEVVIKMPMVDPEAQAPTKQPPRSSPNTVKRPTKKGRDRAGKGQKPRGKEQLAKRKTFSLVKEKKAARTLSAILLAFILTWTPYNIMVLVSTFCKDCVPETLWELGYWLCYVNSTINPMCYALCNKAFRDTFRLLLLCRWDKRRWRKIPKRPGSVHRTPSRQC
Description: M1 binding assay, [3H]-scopolamine N-methyl chloride, CHO cells. Conditions: human recombinant.

For data set [3], the target named is T2, M3 muscarinic receptor (Homo sapiens, UniProt P20309).
T2 construct: purchased PerkinElmer, Inc., Wellesley, Mass; host or cells: CHO cells
Description: M3 binding assay, [3H]-scopolamine N-methyl chloride, CHO cells. To be noted: human recombinant.

In data set [4] the target is alpha 1 receptors. The data set is described as follows: Alpha 1 receptor binding assay. Conditions: read-out: Ki Alpha1. As for the experimental part: (§1) Binding assays were performed using the disclosed sleep-inducing agents and derivatives selected from those listed in Table 1 in competitive binding assays with known standards for the H1 histamine receptor, and the M1, M2, and M3 muscarinic receptors, alpha 1 and alpha 2 receptors, and D1 and D2 receptors.

Data set [5] deals with alpha 2 receptors. Description: Alpha 2 receptor binding assay. Conditions: read-out: Ki Alpha2. As for the experimental part:
as §1

Data set [6] has as its target Dopamine, D1 (Homo sapiens, UniProt P21728). The data set is described as follows: Dopamine D1 (human recombinant) binding assay. As for the experimental part:
as §1
Dopamine, D1 (human recombinant) binding assay was performed according to published procedures. See, e.g., Jarvie, et al. J. Recept Res., 13(1-4): 573-90 (1993); and Billard, et al. Life Sciences, 35(18): 1885-93 (1984), with modifications

Data set [7] concerns the target D2 receptors (Homo sapiens, UniProt P14416). The data set is described as follows: Dopamine D2 binding assay (human). On the procedure:
Binding assays were performed using the disclosed sleep-inducing agents and derivatives selected from those listed in Table 1 in competitive binding assays with known standards for the H1 histamine receptor, and the M1, M2, and M3 muscarinic receptors, alpha 1 and alpha 2 receptors, and D1 and D2 receptors. […]

Data set [8] concerns the target D2 receptors (Rattus norvegicus, UniProt P61169). The data set is described as follows: Dopamine D2 binding, rat. On the procedure: as §1
The subject of data set [9] is male Wistar rats. Description: Sleep-wakefulness monitoring (SCORE-2000, EEG/EMG) after oral dosing at CT-18. In kind it is in vivo, rat. As for the experimental part:
Food and water were available ad libitum.
Treatments were administered orally as a bolus.
A parallel group study design was employed.
The results of NREM and LUSB parameters were measured for the loxapine derivatives such as Compounds 1, 2, 3, 5, 6, 7, 8, 9, 10, 12, 14, 17, 19, 20, 21, 23, 30, 31, 32, 39, 40, 42, 46, 50, 51, 52, 54, 56, and 58 and other compounds listed in Table 1.

Data set [10] has as its target T3, H1 histamine receptor (Bos taurus, UniProt P30546).
T3 construct: the receptors were obtained from bovine cerebellar membrane tissue; from tissue; host or cells: bovine cerebellar membranes
Description: H1 competitive binding assay, [3H]pyrilamine, bovine cerebellar membranes. Conditions: bovine cerebellar membrane.

Data set [11] concerns the target H1 histamine receptor (Rattus norvegicus, UniProt P31390). Description: H1 binding, rat (footnote of Table 8). On the procedure:
as §1

Data set [12] addresses H1 histamine receptor (Homo sapiens, UniProt P35367). The data set is described as follows: H1 binding, human (footnote of Table 8). On the procedure:
as §1

The target of data set [13] is T4, M2 muscarinic receptor (Homo sapiens, UniProt P08172).
T4 construct: purchased PerkinElmer, Inc., Wellesley, Mass; host or cells: CHO cells
T4 sequence (P08172 1-466): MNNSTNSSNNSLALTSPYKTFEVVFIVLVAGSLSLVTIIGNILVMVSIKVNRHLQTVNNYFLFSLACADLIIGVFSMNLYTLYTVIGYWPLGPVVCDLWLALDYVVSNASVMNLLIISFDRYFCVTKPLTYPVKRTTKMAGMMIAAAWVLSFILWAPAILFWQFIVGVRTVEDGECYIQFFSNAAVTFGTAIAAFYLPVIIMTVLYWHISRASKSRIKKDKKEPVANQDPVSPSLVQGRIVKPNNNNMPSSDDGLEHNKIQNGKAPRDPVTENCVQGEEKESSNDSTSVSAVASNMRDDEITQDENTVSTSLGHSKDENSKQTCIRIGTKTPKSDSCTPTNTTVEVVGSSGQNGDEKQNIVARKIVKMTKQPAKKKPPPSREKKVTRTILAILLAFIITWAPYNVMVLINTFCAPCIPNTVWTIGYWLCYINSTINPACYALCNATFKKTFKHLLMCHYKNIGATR
The data set is described as follows: M2 binding assay, [3H]-scopolamine N-methyl chloride, CHO cells. Conditions: human recombinant.

Data set [14] concerns the target Dopamine, D1 (Rattus norvegicus, UniProt P18901). The data set is described as follows: Dopamine D1 binding, rat. On the procedure:
as §1

For data set [15], the target named is T1, M1 muscarinic receptor. To be noted: reference compounds; read-out: Ki of reference compounds, M1 binding assay; cited from earlier work.

Like-named read-outs stand apart in the source and are kept apart here.

T2 sequence (P20309 whole entry): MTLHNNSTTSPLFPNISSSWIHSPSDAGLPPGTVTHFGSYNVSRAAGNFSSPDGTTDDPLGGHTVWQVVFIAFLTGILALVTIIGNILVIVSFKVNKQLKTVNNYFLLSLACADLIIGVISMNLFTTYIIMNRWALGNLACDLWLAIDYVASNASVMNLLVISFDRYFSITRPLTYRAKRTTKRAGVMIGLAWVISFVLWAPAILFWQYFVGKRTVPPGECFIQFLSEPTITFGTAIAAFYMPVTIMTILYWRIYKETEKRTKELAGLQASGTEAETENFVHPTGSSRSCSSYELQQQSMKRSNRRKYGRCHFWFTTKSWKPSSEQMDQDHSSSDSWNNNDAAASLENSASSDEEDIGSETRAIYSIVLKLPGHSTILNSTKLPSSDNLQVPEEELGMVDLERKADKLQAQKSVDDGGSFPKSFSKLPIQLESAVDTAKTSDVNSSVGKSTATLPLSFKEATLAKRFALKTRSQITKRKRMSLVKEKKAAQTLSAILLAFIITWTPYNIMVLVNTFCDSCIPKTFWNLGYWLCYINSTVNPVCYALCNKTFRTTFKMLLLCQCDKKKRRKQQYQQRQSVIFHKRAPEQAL
D2 receptors (Rattus norvegicus, UniProt P61169), sequence (P61169 whole entry): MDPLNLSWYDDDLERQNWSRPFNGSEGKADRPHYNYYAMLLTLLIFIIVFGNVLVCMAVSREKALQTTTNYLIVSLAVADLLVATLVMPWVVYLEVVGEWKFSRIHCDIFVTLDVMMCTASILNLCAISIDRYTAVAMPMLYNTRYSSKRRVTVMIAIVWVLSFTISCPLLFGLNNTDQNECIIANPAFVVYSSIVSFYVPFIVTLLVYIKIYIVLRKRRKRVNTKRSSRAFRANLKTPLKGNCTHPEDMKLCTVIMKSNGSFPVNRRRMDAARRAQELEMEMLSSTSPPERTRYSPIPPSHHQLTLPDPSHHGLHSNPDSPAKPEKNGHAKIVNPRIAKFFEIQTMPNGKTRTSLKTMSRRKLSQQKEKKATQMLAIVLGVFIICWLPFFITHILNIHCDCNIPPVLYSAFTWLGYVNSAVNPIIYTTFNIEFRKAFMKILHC
D2 receptors (Homo sapiens, UniProt P14416), sequence (P14416 whole entry): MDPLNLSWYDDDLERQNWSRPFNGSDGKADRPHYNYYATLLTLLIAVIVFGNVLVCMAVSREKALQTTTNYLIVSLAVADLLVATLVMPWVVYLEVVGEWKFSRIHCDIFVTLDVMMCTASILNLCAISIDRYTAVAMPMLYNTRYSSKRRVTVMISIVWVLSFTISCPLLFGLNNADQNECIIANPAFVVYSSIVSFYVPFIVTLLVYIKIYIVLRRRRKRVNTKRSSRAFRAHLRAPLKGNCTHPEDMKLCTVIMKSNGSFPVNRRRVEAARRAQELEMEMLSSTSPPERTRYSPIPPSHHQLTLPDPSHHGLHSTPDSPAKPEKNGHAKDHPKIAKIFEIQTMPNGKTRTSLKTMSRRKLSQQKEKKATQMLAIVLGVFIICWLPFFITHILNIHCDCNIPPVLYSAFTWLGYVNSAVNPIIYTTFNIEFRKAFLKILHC
Dopamine, D1 (Homo sapiens, UniProt P21728), sequence (P21728 whole entry): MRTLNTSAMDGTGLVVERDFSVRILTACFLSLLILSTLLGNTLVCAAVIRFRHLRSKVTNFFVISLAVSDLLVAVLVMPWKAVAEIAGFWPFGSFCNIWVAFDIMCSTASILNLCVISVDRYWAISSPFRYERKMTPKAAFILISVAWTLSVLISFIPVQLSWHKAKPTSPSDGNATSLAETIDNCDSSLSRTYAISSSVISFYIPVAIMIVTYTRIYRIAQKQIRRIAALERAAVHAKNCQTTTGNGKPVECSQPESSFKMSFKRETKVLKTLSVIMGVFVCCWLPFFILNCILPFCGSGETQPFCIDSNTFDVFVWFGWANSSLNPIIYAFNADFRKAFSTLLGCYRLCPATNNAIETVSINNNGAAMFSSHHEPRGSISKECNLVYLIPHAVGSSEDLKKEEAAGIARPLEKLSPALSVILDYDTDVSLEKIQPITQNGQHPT
hERG channel, sequence (Q12809 whole entry): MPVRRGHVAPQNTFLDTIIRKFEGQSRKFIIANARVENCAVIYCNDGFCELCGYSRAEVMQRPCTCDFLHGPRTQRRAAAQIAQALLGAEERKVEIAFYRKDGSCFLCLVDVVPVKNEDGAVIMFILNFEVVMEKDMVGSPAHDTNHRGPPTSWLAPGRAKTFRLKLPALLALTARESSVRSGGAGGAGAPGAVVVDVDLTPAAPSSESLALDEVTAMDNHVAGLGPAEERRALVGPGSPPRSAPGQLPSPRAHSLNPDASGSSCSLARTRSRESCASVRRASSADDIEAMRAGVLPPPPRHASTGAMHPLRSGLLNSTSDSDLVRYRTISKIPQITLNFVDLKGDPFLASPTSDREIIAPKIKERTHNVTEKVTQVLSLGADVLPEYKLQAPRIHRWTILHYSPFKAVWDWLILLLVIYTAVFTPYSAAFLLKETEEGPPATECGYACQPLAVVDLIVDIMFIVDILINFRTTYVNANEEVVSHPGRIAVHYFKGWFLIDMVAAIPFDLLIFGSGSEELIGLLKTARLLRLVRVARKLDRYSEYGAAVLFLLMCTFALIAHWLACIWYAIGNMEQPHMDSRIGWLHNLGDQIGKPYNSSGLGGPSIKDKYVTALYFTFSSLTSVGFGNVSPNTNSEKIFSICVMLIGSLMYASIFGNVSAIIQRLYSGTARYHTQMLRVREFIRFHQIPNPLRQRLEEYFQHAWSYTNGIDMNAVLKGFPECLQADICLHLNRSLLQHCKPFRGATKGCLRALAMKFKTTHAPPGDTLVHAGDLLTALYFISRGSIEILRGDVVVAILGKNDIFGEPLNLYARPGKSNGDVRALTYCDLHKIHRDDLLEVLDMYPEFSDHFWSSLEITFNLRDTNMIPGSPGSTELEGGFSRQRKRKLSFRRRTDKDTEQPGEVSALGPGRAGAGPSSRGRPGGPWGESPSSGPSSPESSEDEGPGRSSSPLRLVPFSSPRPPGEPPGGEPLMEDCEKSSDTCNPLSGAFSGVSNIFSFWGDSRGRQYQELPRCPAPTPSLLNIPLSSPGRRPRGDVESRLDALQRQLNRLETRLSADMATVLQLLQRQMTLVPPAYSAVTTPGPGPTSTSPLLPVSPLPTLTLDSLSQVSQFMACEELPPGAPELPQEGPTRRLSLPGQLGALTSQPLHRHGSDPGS
H1 histamine receptor (Homo sapiens, UniProt P35367), sequence (P35367 whole entry): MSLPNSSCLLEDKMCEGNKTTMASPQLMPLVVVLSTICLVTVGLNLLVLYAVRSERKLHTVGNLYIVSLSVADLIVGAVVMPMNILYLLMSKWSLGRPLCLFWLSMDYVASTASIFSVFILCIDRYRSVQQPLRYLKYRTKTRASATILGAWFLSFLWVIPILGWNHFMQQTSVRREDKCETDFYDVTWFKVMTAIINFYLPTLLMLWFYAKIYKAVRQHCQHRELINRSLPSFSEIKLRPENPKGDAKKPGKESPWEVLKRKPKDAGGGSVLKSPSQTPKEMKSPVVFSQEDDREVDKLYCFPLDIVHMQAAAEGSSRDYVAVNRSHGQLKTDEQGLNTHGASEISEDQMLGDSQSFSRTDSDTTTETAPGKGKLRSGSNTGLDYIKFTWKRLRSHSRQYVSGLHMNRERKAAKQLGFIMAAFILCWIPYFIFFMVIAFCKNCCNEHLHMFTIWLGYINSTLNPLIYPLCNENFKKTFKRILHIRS
H1 histamine receptor (Rattus norvegicus, UniProt P31390), sequence (P31390 whole entry): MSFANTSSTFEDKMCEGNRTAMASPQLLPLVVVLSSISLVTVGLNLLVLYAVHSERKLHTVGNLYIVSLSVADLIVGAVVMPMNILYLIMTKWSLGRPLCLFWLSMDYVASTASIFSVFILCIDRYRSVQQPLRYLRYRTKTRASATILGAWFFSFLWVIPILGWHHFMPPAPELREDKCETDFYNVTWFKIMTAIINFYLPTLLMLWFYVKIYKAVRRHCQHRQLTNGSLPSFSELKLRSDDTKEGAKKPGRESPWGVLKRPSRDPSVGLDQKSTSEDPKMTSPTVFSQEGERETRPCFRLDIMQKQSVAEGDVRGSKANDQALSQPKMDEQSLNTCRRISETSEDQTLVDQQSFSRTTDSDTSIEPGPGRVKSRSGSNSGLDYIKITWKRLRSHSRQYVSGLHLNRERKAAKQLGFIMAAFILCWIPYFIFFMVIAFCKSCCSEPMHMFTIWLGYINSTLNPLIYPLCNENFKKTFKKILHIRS
T3 sequence (P30546 whole entry): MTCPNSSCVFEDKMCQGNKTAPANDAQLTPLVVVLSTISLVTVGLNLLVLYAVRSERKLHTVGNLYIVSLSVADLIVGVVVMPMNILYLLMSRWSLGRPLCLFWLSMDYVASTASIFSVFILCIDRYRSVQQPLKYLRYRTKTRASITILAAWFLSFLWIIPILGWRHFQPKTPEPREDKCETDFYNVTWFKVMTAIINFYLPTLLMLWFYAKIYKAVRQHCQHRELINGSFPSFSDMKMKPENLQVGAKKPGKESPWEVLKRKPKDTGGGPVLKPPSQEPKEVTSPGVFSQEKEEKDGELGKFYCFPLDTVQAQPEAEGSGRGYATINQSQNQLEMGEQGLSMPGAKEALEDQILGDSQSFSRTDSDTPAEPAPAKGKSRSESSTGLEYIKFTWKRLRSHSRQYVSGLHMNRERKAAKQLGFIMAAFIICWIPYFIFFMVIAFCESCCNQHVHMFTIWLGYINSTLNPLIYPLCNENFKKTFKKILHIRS
Dopamine, D1 (Rattus norvegicus, UniProt P18901), sequence (P18901 whole entry): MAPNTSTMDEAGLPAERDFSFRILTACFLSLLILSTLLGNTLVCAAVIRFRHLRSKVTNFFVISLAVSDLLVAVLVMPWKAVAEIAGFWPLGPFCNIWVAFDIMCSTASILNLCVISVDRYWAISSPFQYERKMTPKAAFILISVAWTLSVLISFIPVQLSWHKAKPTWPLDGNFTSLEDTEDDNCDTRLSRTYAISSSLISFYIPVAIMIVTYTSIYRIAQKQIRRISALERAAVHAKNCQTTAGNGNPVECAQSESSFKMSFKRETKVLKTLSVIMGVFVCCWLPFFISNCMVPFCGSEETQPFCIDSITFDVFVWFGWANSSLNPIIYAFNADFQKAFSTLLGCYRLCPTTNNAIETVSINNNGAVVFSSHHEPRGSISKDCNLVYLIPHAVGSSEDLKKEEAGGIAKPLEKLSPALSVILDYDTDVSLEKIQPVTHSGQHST

On to `CC(C)(CN1CCN(C2=Nc3ccccc3Oc3ccc(F)cc32)CC1)C(=O)O` [Compound 4], for which the “hERG at 10 micromolar (% blocking of the hERG channel)” value in data set [1] came to 8%. For the same molecule, the inhibition constant (Ki) in data set [2], in data set [3], in data set [4], in [5], in data set [6] and in data set [7] was over 10 µM throughout. Further, affinity in data set [8] was put at a Ki of 2.73 µM.

In turn, `CC(C)(CN1CCN(C2=Nc3ccccc3Oc3ccccc32)CC1)C(=O)NS(C)(=O)=O` [Compound 40] showed an NREM in data set [9] (dose 30 mg/kg) of 43 ± 4 min. Moreover, the “hERG at 10 micromolar (% blocking of the hERG channel)” value in data set [1] was determined as 5.6%. Moreover, the Ki (commonly a measure of affinity in units of concentration, obtained from inhibition or displacement) is 0.0228 µM in data set [10]; 0.0588 µM in data set [11]; 0.0317 µM in [12]; over 10 µM in data set [2]; over 10 µM in data set [13]; over 10 µM in data set [3]. In addition, the Ki in data set [4] was over 10 µM; in [5], over 10 µM; in [6] it was over 10 µM; in data set [14] it was over 10 µM; in [7], 1.87 µM; in data set [8], over 10 µM.

On to `CC(C)(CN1CCN(C2=Nc3ccccc3Oc3ccccc32)CC1)C(=O)O` [Compound 1], for which the NREM in [9] (dose 3 mg/kg) was 39 ± 6 min. The “hERG at 10 micromolar (% blocking of the hERG channel)” value in data set [1] is 6.2%. Further, the Ki in data set [10] was 0.0403 µM; in data set [11] it was 0.0115 µM; in data set [12], 0.0237 µM; in data set [2], over 10 µM; in data set [13] it was over 10 µM; in [3], over 10 µM. Further, the Ki in data set [4], in data set [5], in data set [6], in [14], in data set [7] and in data set [8] was over 10 µM throughout.

For the molecule `C[N+]1(C)CCC(OC(=O)C(c2ccccc2)c2ccccc2)CC1` [4-DAMP methiodide], in data set [15], the inhibitory constant (Ki) is 0.00027 µM.
